Test results taken from patent publication US12502414B2, “Second generation Seneca Valley virus oncolytic therapy: compositions and methods thereof” (SENECA THERAPEUTICS, INC., priority 2019, dated 2025).
“Also recorded” adds a separate entry of the source.

How the values were obtained:
[1] = tested on: SVV replication in HeLa cells; experiment: SVV replication in Tem 8+ HeLa cells, virus yield by plaque assay; format: cell-based
Description: FIG. 2A. SVV replication in HeLa cells can be enhanced with staurosporine (SSP). FIG. 2B. Inhibition of SVV replication by IFN-α can be reversed with SSP in Per.C6 cells. TEM 8+ HeLa cells or Per.C6 cells were pretreated with 500 units IFN-α before infection with SVV at MOI 1. 300 nM SSP was added at time 0. Virus yields determined by plaque assay 24 h post infection. Results are representative of three independent experiments.
FIGS. 3A-3B are series of histogram depicting the effect of Trichostatin A on SVV replication. FIG. 3A. SVV replication in HeLa cells can be enhanced with Trichostatin A. FIG. 3B. Inhibition of SVV replication by IFN-α can be reversed with Trichostatin A in Per.C6 cells. TEM 8+ HeLa cells or Per.C6 cells were pretreated with 500 units IFN-α before infection with SVV at MOI 1. 1 μM Trichostatin A was added at time 0. Virus yields determined by plaque assay 24 h post infection. Results are representative of three independent experiments.
FIGS. 4A-4B are series of histogram depicting the effect of Torin 2 A on SVV replication. FIG. 4A. SVV replication in HeLa cells can be enhanced with Torin 2 A. FIG. 4B. Inhibition of SVV replication by IFN-α can be reversed with Torin 2 in Per.C6 cells. TEM 8+ HeLa cells or Per.C6 cells were pretreated with 500 units IFN-α before infection with SVV at MOI 1. 2 μM Torin 2 was added at time −30 min. Virus yields determined by plaque assay 24 h post infection. Results are representative of three independent experiments.
Cells and viruses. Cells were maintained in DMEM supplemented with 10% fetal bovine serum (Per.C6) or 10% bovine serum (HeLa), 2 mM L-glutamine (Invitrogen), and 1% penicillin-streptomycin. Viral stocks were produced by growth in Per.C6 cells as previously described (23).
Cytokines and Inhibitors. IFN-α and Trichostatin A were purchased from Sigma, Inc. (St. Louis, MO). […] All compounds were dissolved in DMSO.
Virus infections. Infections were performed in 35 mm dishes. Cells were counted at the time of infection and viral stocks were diluted in PBS+0.01% BSA (Sigma, St. Louis, MO) for infections at the appropriate MOI. One hundred microliters of diluted virus were used to infect each plate at 37° C. for 45 min with rocking. Cells were then washed twice with PBS and covered with 1 mL of appropriate media; samples taken at this time are called 0 time point. Mock infected cells were treated with PBS+0.01% BSA instead of virus. Three independent infections were done.
Plaque assays. […]
Removal of acetyl moieties from histones is catalyzed by enzymes known as histone deacetylases (HDACs) and leads to […]. […] Sixteen hours after infection virus yields were determined by plaque assay (FIG. 3A). […]

[2] = tested on: SVV replication in Per.C6 cells; experiment: SVV replication in Per.C6 cells with or without IFN-α pretreatment, virus yield by plaque assay; format: cell-based, human; settings: Per.C6 cells pretreated with 500 units IFN-α
Description: Per.C6 cells were pretreated with 500 units IFN-α before infection with SVV at MOI=1. Virus yields were determined by plaque assay 24 h post infection.
Plaque assays. Samples for virus titration were produced by harvesting cells and medium, followed by three cycles of freezing and thawing and then by centrifugation at 5000×g for 5 min. All titrations were done on monolayers of Per.C6 cells in 35 mm plates. Ten-fold serial dilutions of virus were made in PBS+0.1 mg/ml BSA (Sigma) and 0.1 mL of each dilution was added per well. Plates were incubated at 37° C. for 45 min with rocking and overlay was then added. A two-overlay system was used. […] Plaque assays were incubated for 72 hrs at 37° C. Cells were then fixed with 10% TCA (Sigma) and stained with 0.1% crystal violet (Sigma) in 20% ethanol.

CC(/C=C/C(=O)NO)=C\[C@@H](C)C(=O)c1ccc(N(C)C)cc1 [Trichostatin A]
SVV infection of non-permissive HeLa cells (virus yields by plaque assay) ([1]; HeLa cells grown with Trichostatin A for 24 hours before infection, yields sixteen hours after infection (legend: 1 μM at time 0, 24 h)): more efficient | effect on inhibition of SVV replication by IFN-α ([2]; SVV MOI 1, 1 μM Trichostatin A added at time 0, 24 h post infection): reversed the inhibitory effect of IFN-α on SVV replication

IFN-α
production of infectious SVV (virus yields by plaque assay) ([2]; SVV MOI 1, 24 h post infection): significantly reduced production of infectious SVV; also recorded: reduced virus yields

Nc1ccc(-c2ccc3ncc4ccc(=O)n(-c5cccc(C(F)(F)F)c5)c4c3c2)cn1 [Torin 2]
enhanced SVV replication by Torin 2 in the presence of IFN-α ([1]; HeLa cells pretreated with 500 units IFN-α, 2 μM Torin 2 at −30 min, SVV MOI 1, 24 h post infection): not reduced in the presence of IFN-α | SVV yields (plaque assay) ([1]; semi-permissive HeLa cells, SVV MOI 1, 2 μM Torin 2 added at time −30 min, 24 h post infection): substantially increased SVV yields | SVV replication in the presence of IFN-α ([2]; 2 μM Torin 2 at −30 min, SVV MOI 1, 24 h post infection): promoted SVV replication

CN[C@@H]1C[C@H]2O[C@@](C)([C@@H]1OC)n1c3ccccc3c3c4c(c5c6ccccc6n2c5c31)C(=O)NC4 [staurosporine]
production of infectious SVV (virus yields by plaque assay) ([1]; Tem 8+ HeLa cells, SVV MOI 1, 300 nM SSP added at time 0, 24 h post infection): increased production of infectious SVV
